Consider 19 molecules from ChEMBL document CHEMBL6182910, “Design, Synthesis, and Biological Evaluation of 4-(Difluoromethyl)-1H-imidazole-5-carboxylic Acids/4-(3-Cyanophenoxy)pyrimidine-5-carboxylic Acids as P2Y1 Receptor Antagonists for Ischemic Stroke Treatment” (J Med Chem, 2025).

Structures are written as SMILES. Calls of active or inactive are those of the source. The rule behind the calls is not given here.

Experiment [1] concerns Rattus norvegicus. As to the kind of experiment: Anti-platelet aggregation in Sprague-Dawley rat assessed as inhibition of ADP-induced platelet aggregation at 6 mg/kg, po measured for 15 mins in presence of 10 uM ADP by cell counter analysis relative to control. Type of experiment: functional. Particulars: 0.25 h.
Experiment [2] relates to Rattus norvegicus. Put plainly: Neuroprotective activity in MCAO-induced brain damage Sprague-Dawley rat model assessed as reduction in brain infarction size at 6 mg/kg, iv administered immediately after arterial occlusion measured after 24 hrs by TTC staining based analysis relative to control. The experiment is classed as functional. The arrangement: scale not given: the % may be the effect or the level left.

In experiment [3] the test system is Rattus norvegicus. As to the kind of experiment: Neuroprotective activity in MCAO-induced brain damage Sprague-Dawley rat model assessed as plasma GSH-px level at 6 mg/kg, iv administered immediately after arterial occlusion measured after 24 hrs. The experiment is classed as functional.
A short description of experiment [4]: Antioxidant activity assessed as inhibition of DPPH radical scavenging activity incubated for 30 mins under dark condition by absorbance based method. Type of experiment: functional.
Experiment [5] deals with Rattus norvegicus. Put plainly: Neuroprotective activity in MCAO-induced brain damage Sprague-Dawley rat model assessed as reduction in brain water content at 6 mg/kg, iv administered immediately after arterial occlusion measured after 24 hrs. The experiment is classed as functional, organism-based.
In experiment [6] the test system is Rattus norvegicus. Put plainly: Anti-platelet aggregation in Sprague-Dawley rat assessed as inhibition of ADP-induced platelet aggregation at 6 mg/kg, po measured for 15 mins in presence of 5 uM ADP by cell counter analysis relative to control. Type of experiment: functional. The following applies: 0.25 h.
Experiment [7] concerns Rattus norvegicus. As to the kind of experiment: Neuroprotective activity in MCAO-induced brain damage Sprague-Dawley rat model assessed as plasma MDA level at 6 mg/kg, iv administered immediately after arterial occlusion measured after 24 hrs (reference value: 51.7 %). Type of experiment: functional.
Experiment [8] relates to Rattus norvegicus. Put plainly: Anti-platelet aggregation in Sprague-Dawley rat assessed as inhibition of ADP-induced platelet aggregation at 6 mg/kg, po measured for 15 mins in presence of 2.5 uM ADP by cell counter analysis relative to control. Type of experiment: functional. Particulars: 0.25 h.
Experiment [9] relates to Rattus norvegicus. Put plainly: Neuroprotective activity in MCAO-induced brain damage Sprague-Dawley rat model assessed as plasma MDA level at 10 mg/kg, iv administered immediately after arterial occlusion measured after 24 hrs (reference value: 51.7 %). The experiment is classed as functional.
Experiment [10] deals with Rattus norvegicus. As to the kind of experiment: Anti-platelet aggregation in Sprague-Dawley rat assessed as inhibition of ADP-induced platelet aggregation at 10 mg/kg, po measured for 15 mins in presence of 2.5 uM ADP by cell counter analysis relative to control. Type of experiment: functional. Particulars: 0.25 h.
The species named for a further experiment is Oryctolagus cuniculus. Put plainly: Antagonist activity at P2Y12 receptor in platelet-rich plasma of male Japanese white rabbit assessed as inhibition of VASP phosphorylation at Ser239 at 30 uM pretreated for 10 mins followed by PGE1/ADP addition measured after 10 mins by ELISA relative to control. Type of experiment: cell-free. The following applies: time 20.0 min.

Experiment [11] can be described thus: Antagonist activity at P2Y1 receptor in platelet-rich plasma of male Japanese white rabbit assessed as inhibition of ADP-induced cytosolic Ca2+ level pretreated for 5 mins followed by ADP addition by FLUO-4 AM dye based analysis. The experiment is classed as cell-free. Particulars: Oryctolagus cuniculus.
Experiment [12] deals with P2Y purinoceptor 12 (Rattus norvegicus) (UniProt Q9EPX4). As to the kind of experiment: Antagonist activity at P2Y12 receptor in platelet-rich plasma of male Sprague-Dawley rat assessed as inhibition of VASP phosphorylation at Ser239 at 30 uM pretreated for 10 mins followed by PGE1/ADP addition measured after 10 mins by ELISA relative to control. Type of experiment: cell-free. The following applies: time 20.0 min.
P2Y purinoceptor 12 (Rattus norvegicus), sequence (Q9EPX4 whole entry): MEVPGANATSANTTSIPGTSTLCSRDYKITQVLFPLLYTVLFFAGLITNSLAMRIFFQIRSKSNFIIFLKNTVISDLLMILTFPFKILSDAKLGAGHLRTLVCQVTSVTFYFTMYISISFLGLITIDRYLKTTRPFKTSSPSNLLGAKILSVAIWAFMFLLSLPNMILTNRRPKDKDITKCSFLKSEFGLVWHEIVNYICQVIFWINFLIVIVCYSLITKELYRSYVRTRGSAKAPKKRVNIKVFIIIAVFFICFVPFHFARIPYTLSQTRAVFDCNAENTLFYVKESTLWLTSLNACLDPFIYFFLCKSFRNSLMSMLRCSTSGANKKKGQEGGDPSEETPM

The target in a further experiment is P2Y purinoceptor 1 (Rattus norvegicus, UniProt P49651). Put plainly: Antagonist activity at P2Y1 receptor in platelet-rich plasma of rat assessed as inhibition of ADP-induced cytosolic Ca2+ level pretreated for 5 mins followed by ADP addition by FLUO-4 AM dye based analysis. The experiment is classed as functional, cell-free.
P2Y purinoceptor 1, sequence (P49651 whole entry): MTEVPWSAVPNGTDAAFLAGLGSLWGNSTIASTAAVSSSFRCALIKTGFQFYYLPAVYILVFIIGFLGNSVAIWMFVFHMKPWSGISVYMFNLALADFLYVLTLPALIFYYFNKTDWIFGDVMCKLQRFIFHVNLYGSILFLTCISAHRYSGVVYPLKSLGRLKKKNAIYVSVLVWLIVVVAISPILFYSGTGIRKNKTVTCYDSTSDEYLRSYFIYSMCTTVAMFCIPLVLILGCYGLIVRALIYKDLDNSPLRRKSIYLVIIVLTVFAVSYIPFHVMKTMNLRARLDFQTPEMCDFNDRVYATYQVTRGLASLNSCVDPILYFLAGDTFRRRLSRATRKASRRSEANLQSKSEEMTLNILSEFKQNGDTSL
The test system of experiment [13] is Rattus norvegicus. As to the kind of experiment: Neuroprotective activity in MCAO-induced brain damage Sprague-Dawley rat model assessed as reduction in brain infarction size at 10 mg/kg, iv administered immediately after arterial occlusion measured after 24 hrs by TTC staining based analysis relative to control. Type of experiment: functional. The arrangement: scale not given: the % may be the effect or the level left.

Experiment [14] concerns Rattus norvegicus. As to the kind of experiment: Anti-platelet aggregation in Sprague-Dawley rat assessed as inhibition of ADP-induced platelet aggregation at 10 mg/kg, po measured for 15 mins in presence of 5 uM ADP by cell counter analysis relative to control. Type of experiment: functional. The following applies: 0.25 h.
Experiment [15] relates to Rattus norvegicus. Put plainly: Neuroprotective activity in MCAO-induced brain damage Sprague-Dawley rat model assessed as reduction in brain water content at 10 mg/kg, iv administered immediately after arterial occlusion measured after 24 hrs. The experiment is classed as functional, organism-based.
Experiment [16] concerns Rattus norvegicus. As to the kind of experiment: Anti-platelet aggregation in Sprague-Dawley rat assessed as inhibition of ADP-induced platelet aggregation at 10 mg/kg, po measured for 15 mins in presence of 10 uM ADP by cell counter analysis relative to control. The experiment is classed as functional. Particulars: 0.25 h.
The test system of experiment [17] is Plasma. Put plainly: Anti-platelet aggregation in platelet-rich plasma of male male Sprague-Dawley rat assessed as inhibition of ADP-induced platelet aggregation preincubated for 15 mins followed by ADP addition measured up to 10 mins by Born's turbidometric method. Type of experiment: functional, cell-free.
The test system of experiment [18] is Plasma. As to the kind of experiment: Anti-platelet aggregation in platelet-rich plasma of male human assessed as inhibition of ADP-induced platelet aggregation preincubated for 15 mins followed by ADP addition measured up to 10 mins by Born's turbidometric method. The experiment is classed as functional, cell-free.
Experiment [19] has as its system Rattus norvegicus. As to the kind of experiment: Neuroprotective activity in MCAO-induced brain damage Sprague-Dawley rat model assessed as plasma GSH-px level at 10 mg/kg, iv administered immediately after arterial occlusion measured after 24 hrs. The experiment is classed as functional.
The next experiment deals with HT-22. As to the kind of experiment: Neuroprotective activity against H2O2-induced oxidative stress in mouse HT-22 cells assessed as cell viability at 10 uM preincubated for 2 hrs followed by H2O2 addition measured after 24 hrs by MTT assay (reference value: 55 +/- 4.6 %). The experiment is classed as functional. Particulars: for viability at 10 µM: time 26 hrs, read-out: Activity; for Activity: time 26.0 hrs.

The subject of experiment [20] is Plasma. Put plainly: Anti-platelet aggregation in platelet-rich plasma of male Japanese white rabbit assessed as inhibition of ADP-induced platelet aggregation preincubated for 15 mins followed by ADP addition measured up to 10 mins by Born's turbidometric method. The experiment is classed as functional, cell-free. Particulars: Oryctolagus cuniculus.
A short description of experiment [21]: Antagonist activity at P2Y12 receptor in platelet-rich plasma of male Japanese white rabbit assessed as inhibition of VASP phosphorylation at Ser239 pretreated for 10 mins followed by PGE1/ADP addition measured after 10 mins by ELISA. Type of experiment: cell-free. The following applies: Oryctolagus cuniculus.
Another experiment has as its target P2Y purinoceptor 12 (Rattus norvegicus, UniProt Q9EPX4). Put plainly: Antagonist activity at P2Y12 receptor in platelet-rich plasma of male Sprague-Dawley rat assessed as inhibition of VASP phosphorylation at Ser239 pretreated for 10 mins followed by PGE1/ADP addition measured after 10 mins by ELISA. Type of experiment: cell-free.

P2Y purinoceptor 12, sequence (Q9EPX4 whole entry): as the sequence (Q9EPX4 whole entry) above

With `CC1=NN(c2ccccc2)C(=O)C1` [EDARAVONE], the inhibition in vivo at 6 mg/kg is 29.4% with Rattus norvegicus [1], 48.5% in the experiment on Rattus norvegicus [6] and 55.4% in the experiment on Rattus norvegicus [8]. Further, the Activity with Rattus norvegicus [2] is listed as 35.7%; with Rattus norvegicus [3] it was 579.3 U/ml; in the experiment on Rattus norvegicus [5] it was “Active; Water Content Did Not Return To Blank Level”; in the experiment on Rattus norvegicus [7], 31%. Besides, the 50% inhibitory concentration (IC50) in experiment [4] came to 23.6 µM.
Turning to `Cc1nc(-c2cccc(C#N)c2)n(OCc2ccc(C#N)cc2)c1C(=O)O`, the Activity with Rattus norvegicus [9] was 48.8%; in the experiment with Rattus norvegicus [13] it was 33.6%; in the experiment on Rattus norvegicus [15], “Active; Water Content Did Not Return To Blank Level”; in the experiment with Rattus norvegicus [19] it was 677.6 U/ml. For the same molecule, the values for the inhibition in vivo at 10 mg/kg in the experiment with Rattus norvegicus [10], with Rattus norvegicus [14] and in the experiment with Rattus norvegicus [16] were 34.9%, 35.1% and 19.1%, respectively. The figures for the inhibition (in the experiment filed under Oryctolagus cuniculus; in experiment [12] (filed as antagonist)) were 27.9% and 40.8%, respectively. For the same molecule, the IC50 came out at 4.07 µM in [11]; 2.95 µM at P2Y purinoceptor 1; 3.84 µM in the experiment with Plasma [17]; 4.24 µM in the experiment on Plasma [18]; 3.5 µM in the experiment with Plasma [20]. Also, in the experiment with HT-22, the viability at 10 µM amounted to 81.3%.
As for `CCCSc1nc(N[C@@H]2C[C@H]2c2ccc(F)c(F)c2)c2nnn([C@@H]3C[C@H](OCCO)[C@@H](O)[C@H]3O)c2n1` [TICAGRELOR], the inhibition in vivo at 10 mg/kg in the experiment with Rattus norvegicus [10] came out at 71.8%; with Rattus norvegicus [14] it was 73.7%; in the experiment on Rattus norvegicus [16], 77.7%. For the same molecule, the IC50 in experiment [21] was found to be 2.89 µM; with Plasma [17] it was 0.56 µM; in the experiment with Plasma [18], 0.69 µM; in the experiment with Plasma [20], 0.5 µM; at P2Y purinoceptor 12, 2.11 µM. In addition, the viability at 10 µM with HT-22 was determined as 76%.
With `N#Cc1cccc(-c2nc(C(F)F)c(C(=O)O)n2OCc2cncs2)c1`, in the experiment with HT-22, the viability at 10 µM worked out at 64.9%. Moreover, the concentration for half-maximal inhibition (IC50) in the experiment with Plasma [20] worked out at 3.77 µM.
Regarding `N#Cc1cccc(-c2ncc(C(=O)O)c(Oc3ccn[nH]3)n2)c1`, the result in the experiment with HT-22 was inactive. The IC50 in the experiment on Plasma [20] is over 10 µM.
On the same counts, the results for `COCc1nc(-c2cccc(C#N)c2)n(OCc2ccc(C#N)cc2)c1C(=O)O` are “inactive” and 1.62 µM.
`N#Cc1ccc(COc2nc(-c3ccc(C#N)cc3)ncc2C(=O)O)cc1`: the viability at 10 µM in the experiment with HT-22 worked out at 88.2%. Further, in the experiment on Plasma [20], the IC50 was over 10 µM.
In the case of `N#Cc1ccc(COn2c(-c3cccc(C#N)c3)nc(-c3cncs3)c2C(=O)O)cc1`, the result in the experiment with HT-22 was inactive. Also, the IC50 with Plasma [20] came out at 2.63 µM.
As for `CC(C)(C)c1ccccc1Oc1ncccc1NC(=O)Nc1ccc(OC(F)(F)F)cc1`, the Activity in the experiment with Rattus norvegicus [9] was 44.1%; with Rattus norvegicus [15], “Active; Water Content Did Not Return To Blank Level”; in the experiment on Rattus norvegicus [19], 489.1 U/ml. Further, the inhibition in vivo at 10 mg/kg with Rattus norvegicus [10] was 65.9%; with Rattus norvegicus [14], 64.6%; with Rattus norvegicus [16], 34.4%. Besides, the inhibition turned out to be 30.3% in the experiment filed under Oryctolagus cuniculus and 37.6% in [12]. In addition, the IC50 in experiment [11] stood at 2.5 µM; at P2Y purinoceptor 1, 2.66 µM; in the experiment with Plasma [17] it was 3.31 µM; in the experiment with Plasma [18], 3.4 µM; in the experiment with Plasma [20], 4.42 µM. The viability at 10 µM with HT-22 amounted to 82.6%.
Regarding `N#Cc1cccc(-c2nc(C(F)F)c(C(=O)O)n2OCc2cccnc2)c1`, the result in the experiment on HT-22 was inactive. For the same molecule, the 50% inhibitory concentration (IC50) in the experiment with Plasma [20] was over 10 µM.
On to `N#Cc1ccc(COn2c(-c3cccc(C#N)c3)nc(-c3ccco3)c2C(=O)O)cc1`, for which the viability at 10 µM with HT-22 stood at 77.1%. In addition, the IC50 with Plasma [20] was over 10 µM.
On the same counts, the results for `N#Cc1cccc(-c2nc(C(F)F)c(C(=O)O)n2OCc2ccccn2)c1` are 75.9% and over 10 µM.
As to `N#Cc1ccc(COn2c(-c3cccc(C#N)c3)nc(-c3ccoc3)c2C(=O)O)cc1`, in the experiment on HT-22, the outcome was inactive. In addition, the IC50 in the experiment with Plasma [20] was found to be 7.61 µM.
For the molecule `Cc1nc(-c2cccc(C#N)c2)nc(OCc2ccc(C#N)cc2)c1C(=O)O`, the result with HT-22 was inactive. Besides, the half-maximal inhibitory concentration (IC50) in the experiment on Plasma [20] came to 5.02 µM.
Turning to `N#Cc1cccc(-c2nc(C(F)F)c(C(=O)O)n2OCc2cocn2)c1`, the result with HT-22 was inactive. In addition, in the experiment with Plasma [20], the IC50 was found to be 1.69 µM.
Taken in the same sequence, the figures for `N#Cc1ccc(COn2c(-c3cccc(C#N)c3)nc(-c3ccncc3)c2C(=O)O)cc1` were “inactive” and over 10 µM.
As to `N#Cc1cccc(-c2ncc(C(=O)O)c(Nc3cccnc3)n2)c1`, in the experiment with HT-22, the outcome was inactive. Moreover, in the experiment on Plasma [20], the 50% inhibitory concentration (IC50) is over 10 µM.
Turning to `N#Cc1ccc(-c2ncc(C(=O)O)c(OCc3cccc(C#N)c3)n2)cc1`, the viability at 10 µM with HT-22 is 81.1%. The IC50 with Plasma [20] was determined as 3.01 µM.
On the same counts, the results for `CC(C)Cc1nc(-c2cccc(C#N)c2)n(OCc2ccc(C#N)cc2)c1C(=O)O` are 76.1% and 2.08 µM.
